Reference: US6352958B1, “Cycloimido-substituted benzofused heterocyclic herbicides” (FMC Corporation, priority 1997, dated 2002)

What was measured:
Type in all cases: in vivo
[1] = tested on: soybean (Glycine max var. Winchester); test: Preemergence herbicidal activity, soybean; conditions: Rate of Application 0.3 Kg/Ha, examined after 12-17 days
[2] = tested on: wheat (Triticum aestivum var. Lew); test: Preemergence herbicidal activity, wheat; conditions: Rate of Application 0.3 Kg/Ha, examined after 12-17 days
[3] = tested on: field corn (Zea mays var. Pioneer 3732); test: Preemergence herbicidal activity, corn; conditions: Rate of Application 0.3 Kg/Ha, examined after 12-17 days
[4] = tested on: velvetleaf (Abutilon theophrasti); test: Preemergence herbicidal activity, velvetleaf; conditions: Rate of Application 0.3 Kg/Ha, examined after 12-17 days
[5] = tested on: morningglory (Ipomea lacunosa or Ipomea hederacea); test: Preemergence herbicidal activity, morningglory; conditions: Rate of Application 0.3 Kg/Ha, examined after 12-17 days
[6] = tested on: common chickweed (Stellaria media); test: Preemergence herbicidal activity, chickweed; conditions: Rate of Application 0.3 Kg/Ha, examined after 12-17 days
[7] = tested on: common cocklebur (Xanthium strumarium L.); test: Preemergence herbicidal activity, cocklebur; conditions: Rate of Application 0.3 Kg/Ha, examined after 12-17 days
[8] = tested on: blackgrass (Aloepecurus myosuroides); test: Preemergence herbicidal activity, blackgrass; conditions: Rate of Application 0.3 Kg/Ha, examined after 12-17 days
Experimental: The benzofused heterocyclic compounds of this invention were tested for pre- and postemergence herbicidal activity using a variety of crops and weeds. The test plants included soybean (Glycine max var. Winchester), field corn (Zea mays var. Pioneer 3732), wheat (Triticum aestivum var. Lew), morningglory (Ipomea lacunosa or Ipomea hederacea), velvetleaf (Abutilon theophrasti), green foxtail (Setaria viridis), Johnsongrass (Sorghum halepense), blackgrass (Aloepecurus myosuroides), common chickweed (Stellaria media), and common cocklebur (Xanthium strumarium L.).
For preemergence testing, two disposable fiber flats (8 cm×15 cm×25 cm) for each rate of application of each candidate herbicide were filled to an approximate depth of 6.5 cm with steam-sterilized sandy loam soil. The soil was leveled and impressed with a template to provide five evenly spaced furrows 13 cm long and 0.5 cm deep in each flat. Seeds of soybean, wheat, corn, green foxtail, and johnsongrass were planted in the furrows of the first flat, and seeds of velvetleaf, morningglory, common chickweed, cocklebur, and blackgrass were planted in the furrows of the second flat. The five-row template was employed to firmly press the seeds into place. A topping soil of equal portions of sand and sandy loam soil was placed uniformly on top of each flat to a depth of approximately 0.5 cm. Flats for postemergence testing were prepared in the same manner except that they were planted 9-14 days prior to the preemergence flats and were placed in a greenhouse and watered, thus allowing the seeds to germinate and the foliage to develop.
In both pre- and postemergence tests, a stock solution of the candidate herbicide was prepared by dissolving 0.27 g of the compound in 20 mL of water/acetone (50/50) containing 0.5% v/v sorbitan monolaurate. For an application rate of 3000 g/ha of herbicide a 10 mL portion of the stock solution was diluted with water/acetone (50/50) to 45 mL.
The preemergence flats were initially subjected to a light water spray. The four flats were placed two by two along a conveyor belt (i.e., the two preemergence followed by the two postemergence flats). The conveyor belt fed under a spray nozzle mounted about ten inches above the post-emergent foliage. The preemergent flats were elevated on the belt so that the soil surface was at the same level below the spray nozzle as the foliage canopy of the postemergent plants. The spray of herbicidal solution was commenced and once stabilized, the flats were passed under the spray at a speed to receive a coverage equivalent of 100 L/ha. At this coverage the application rates are those shown in the above table for the individual herbicidal solutions. The preemergence flats were watered immediately thereafter, placed in the greenhouse and watered regularly at the soil surface. The postemergence flats were immediately placed in the green-house and not watered until 24 hours after treatment with the test solution. Thereafter they were regularly watered at ground level. After 12-17 days the plants were examined and the phytotoxicity data were recorded.
Phytotoxicity data were taken as percent control. Percent control was determined by a method similar to the 0 to 100 rating system disclosed in “Research Methods in Weed Science,” 2nd ed., B. Truelove, Ed.; Southern Weed Science Society; Auburn University, Auburn, Ala., 1977.

[9] = tested on: green foxtail (Setaria viridis); test: Preemergence herbicidal activity, green foxtail; conditions: Rate of Application 0.3 Kg/Ha, examined after 12-17 days
[10] = tested on: Johnsongrass (Sorghum halepense); test: Preemergence herbicidal activity, johnsongrass; conditions: Rate of Application 0.3 Kg/Ha, examined after 12-17 days
[11] = tested on: soybean (Glycine max var. Winchester); test: Postemergence herbicidal activity, soybean; conditions: rate of application 0.3 Kg/Ha, rated after 12-17 days
[12] = tested on: wheat (Triticum aestivum var. Lew); test: Postemergence herbicidal activity, wheat; conditions: rate of application 0.3 Kg/Ha, rated after 12-17 days
[13] = tested on: field corn (Zea mays var. Pioneer 3732); test: Postemergence herbicidal activity, corn; conditions: rate of application 0.3 Kg/Ha, rated after 12-17 days
[14] = tested on: velvetleaf (Abutilon theophrasti); test: Postemergence herbicidal activity, velvetleaf; conditions: rate of application 0.3 Kg/Ha, rated after 12-17 days
[15] = tested on: morningglory (Ipomea lacunosa or Ipomea hederacea); test: Postemergence herbicidal activity, morningglory; conditions: rate of application 0.3 Kg/Ha, rated after 12-17 days
[16] = tested on: common chickweed (Stellaria media); test: Postemergence herbicidal activity, chickweed; conditions: rate of application 0.3 Kg/Ha, rated after 12-17 days
[17] = tested on: common cocklebur (Xanthium strumarium L.); test: Postemergence herbicidal activity, cocklebur; conditions: rate of application 0.3 Kg/Ha, rated after 12-17 days
[18] = tested on: green foxtail (Setaria viridis); test: Postemergence herbicidal activity, green foxtail; conditions: rate of application 0.3 Kg/Ha, rated after 12-17 days
[19] = tested on: Johnsongrass (Sorghum halepense); test: Postemergence herbicidal activity, johnsongrass; conditions: rate of application 0.3 Kg/Ha, rated after 12-17 days

Row | Compound | PREEMERGENCE HERBICIDAL ACTIVITY (% CONTROL) SOY [1] [%] | PREEMERGENCE HERBICIDAL ACTIVITY (% CONTROL) WHT [2] [%] | PREEMERGENCE HERBICIDAL ACTIVITY (% CONTROL) CRN [3] [%] | PREEMERGENCE HERBICIDAL ACTIVITY (% CONTROL) ABUTH [4] [%] | PREEMERGENCE HERBICIDAL ACTIVITY (% CONTROL) IPOSS [5] [%] | PREEMERGENCE HERBICIDAL ACTIVITY (% CONTROL) STEME [6] [%] | PREEMERGENCE HERBICIDAL ACTIVITY (% CONTROL) XANPE [7] [%] | PREEMERGENCE HERBICIDAL ACTIVITY (% CONTROL) ALOMY [8] [%] | PREEMERGENCE HERBICIDAL ACTIVITY (% CONTROL) SETVI [9] [%] | PREEMERGENCE HERBICIDAL ACTIVITY (% CONTROL) SORHA [10] [%] | Postemergence herbicidal activity (% control) SOY [11] [%] | Postemergence herbicidal activity (% control) WHT [12] [%] | Postemergence herbicidal activity (% control) CRN [13] [%] | Postemergence herbicidal activity (% control) ABUTH [14] [%] | Postemergence herbicidal activity (% control) IPOSS [15] [%] | Postemergence herbicidal activity (% control) STEME [16] [%] | Postemergence herbicidal activity (% control) XANPE [17] [%] | Postemergence herbicidal activity (% control) SETVI [18] [%] | Postemergence herbicidal activity (% control) SORHA [19] [%]
1 | CC(OC(=O)c1ccccc1)c1cc2c(Cl)cc(F)c(-n3c(=O)cc(C(F)(F)F)n(C)c3=O)c2o1 (stereo not shown) [Compound 248] | 100 | 90 | 95 | 100 | 100 | 100 | 100 | 95 | 100 | 100 | 80 | 50 | 95 | 100 | 100 | 100 | 100 | 100 | 100
2 | CC(=O)N(C(C)=O)c1nc2c(-n3c(=O)cc(C(F)(F)F)n(C)c3=O)c(F)cc(Br)c2o1 [Compound 100] | 40 | 30 | 80 | 100 | 100 | 20 | – | 60 | 50 | 70 | 85 | 40 | 60 | 90 | 100 | 50 | 50 | 30 | 40
3 | COCc1nc2c(-n3c(=O)cc(C(F)(F)F)n(C)c3=O)c(F)cc(Br)c2o1 [Compound 96] | 100 | 90 | 95 | 100 | 100 | 100 | – | 90 | 100 | 95 | 100 | 90 | 90 | 100 | 100 | 100 | 100 | 100 | 100
4 | CC(=O)Nc1nc2c(-n3c(=O)cc(C(F)(F)F)n(C)c3=O)c(F)cc(Br)c2o1 [Compound 43] | 50 | 40 | 80 | 100 | 100 | 10 | – | 60 | 70 | 80 | 80 | 30 | 70 | 100 | 100 | 70 | 50 | 50 | 50
